# Laboratory results reported in US11998600B2, “Enhancing the therapeutic activity of an immune checkpoint inhibitor” (MaineHealth, priority 2015, dated 2024).
# Columns and labels:
# [1] = system: chick chorioallantoic membrane (CAM); assay: Chick CAM inflammation assay, induction by RGD collagen peptides; format: in vivo; conditions: chick CAM, no cortisone acetate; FIG. 5D
# Procedure: The chick chorioallantoic membrane (CAM) assays were carried out with some modifications (19). For all experiments CAMs of 10-day-old chick embryos obtained from Charles River (North Franklin, CT) were separated from the shell membrane. Filter discs either non-treated (inflammation assays) pretreated (angiogenesis assays) with cortisone acetate (3.0 mg/ml) containing RPMI only or FGF-2 (40 ng). CAMs were either non-treated or treated topically with Mab XL313, XL166 or a non-specific control antibody (10 μg/embryo every 24 h for three consecutive treatments). […] At the end of the incubation period the embryos were sacrificed and the CAM tissues were analyzed. Angiogenesis was quantified by counting the number of angiogenic branching blood vessels within the area of the filter disc. The angiogenic index was determined by subtracting the mean number of blood vessel branch points from untreated CAMs from each experimental condition. Eight to twelve embryos were used per condition and experiments were repeated at least three times.
# The effects of the soluble RGD containing collagen peptides on inflammation were examined.
# Fak = Fak phosphorylation in endothelial cells attached to collagen peptides; format: cell-based, human; conditions: serum free conditions
# Procedure: Whole cell and CAM tissue lysates were collected in RIPA buffer supplemented with 1× protease inhibitor and 1× phosphatase inhibitor and were run on polyacrylamide gels using denaturing conditions. Prior to loading the gels, 6× sample buffer was added to each of the lysates (final concentration 1×) and boiled for five minutes. Twenty to 50 μg of total protein were loaded into each lane. For detection of proteins larger than 50 kD, 10% gels were used; for proteins smaller than 50 kD 15% gels were used. Gels were run at 60 volts (v) until the dye front passed through the stacking gel, and then the voltage was increased to 100V for the remainder of the separation. Precision Plus protein standards (Bio-Rad) were used to visualize migration. […] Western blot bands were quantified using Image J software based on pixel intensity.
# (§1) Because both RGD containing peptides bind αvβ3 coupled with the differential effect of these peptides on angiogenesis and inflammation, it was determined whether the RGD peptides differentially altered αvβ3-mediated signaling. […] Therefore, the differential phosphorylation of these protein kinases following the early mechanical-mediated interactions with the RGD containing collagen peptides was assessed. […]
# [2] = system: endothelial cells (HUVECs); assay: Actin stress fiber formation in HUVECs attached to collagen peptides (F-actin stain); format: cell-based, human; conditions: FIG. 7G
# Procedure: CAMs examined for accumulation of granulation tissue were harvested, fixed in 4% PFA and paraffin embedded and sectioned (4 μm) and stained with Giemsa. CAM tissues analyzed via immunofluorescence were harvested, embedded with OCT, snap frozen and sectioned ([…]). Frozen sections were fixed in 50% methanol/50% acetone, air dried and blocked with 2.5% BSA for 1 h at 37° C. For expression of the XL313 and XL166 epitopes as well as monocyte/macrophages, FGF-2 stimulated CAM tissues were stained with Mabs XL313, XL166 (50 μg/ml) or KUL1 (1:250) and then incubated with Alexa-488 labeled secondary antibodies (1:2000 dilution). […] Using a similar strategy, sections of RGD peptide-treated CAM tissues were analyzed for phosphorylated-P38MAPK in angiogenic vessels by co-incubation of anti-phospho-P38MAPK (1:50) and anti-vWf (1:500) antibodies. […]
# as §1
sequence,measurement,setting,value
QGPRGDKGE [Mab P-2],CAM inflammation following stimulation with peptide,[1],significantly (P<0.05) induced inflammation to nearly that of FGF-2 stimulation
same,Fak phosphorylation following ligation of peptide,Fak,Minimal Fak phosphorylation
same,"actin stress fiber formation, P-2 as compared to P-1",[2],accelerated actin stress fiber formation
